What was measured:
Format in all cases: in vivo
[1] = test system: redroot pigweed (Amaranthus retroflexus, AMARE); assay: Pre-emerge test, greenhouse herbicide activity screening; conditions: pre-emerge, phytotoxicity rating 0-100 at 14 days after application
Summary of the method: (§1)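 Visual ratings on a 0-100 scale (0 no damage, 100 all plants dead) were taken at 14 days after treatment. Rates of 15-1000 g ai/ha in acetone, 187 l/ha, were sprayed onto soil one day after planting (pre-emerge) or onto 2-3 leaf plants with 0.25% v/v surfactant (post-emerge).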

[2] = test system: upland rice (Oryza sp., var. Tebonnet, RICE); assay: Post-emerge test, crop safety; conditions: post-emerge, crop damage rating 0-100 at 14 days after application
Summary of the method: (§2)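 Herbicidal damage is scored 0 (none) to 100 (complete plant death) two weeks after a simulated field spray. Rates span 15–1000 g ai/ha, delivered in acetone at 187 l/ha. For post-emergence treatments, plants have 2–3 leaves and the spray carries 0.25% v/v non-ionic surfactant.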

[3] = test system: field corn (Zea mays L., var. Dekalb 535, CORN); assay: Post-emerge test, crop safety; conditions: post-emerge, crop damage rating 0-100 at 14 days after application
Summary of the method: as §2

[4] = test system: johnsongrass (Sorghum halepense, SORHA); assay: Post-emerge test, greenhouse herbicide activity screening; conditions: post-emerge, phytotoxicity rating 0-100 at 14 days after application
Summary of the method: as §1

[5] = test system: ivyleaf morningglory (Ipomoea hederacea, IPOHE); assay: as above; conditions: post-emerge, phytotoxicity rating 0-100 at 14 days after application
Summary of the method: as §1

[6] = test system: velvetleaf (Abutilon theophrasti, ABUTH); assay: as above; conditions: post-emerge, phytotoxicity rating 0-100 at 14 days after application
Summary of the method: as §1

[7] = test system: sicklepod (Cassia obtusifolia, CASOB); assay: as above; conditions: post-emerge, phytotoxicity rating 0-100 at 14 days after application
Summary of the method: as §1

[8] = test system: green foxtail (Setaria viridis, SETVI); assay: as above; conditions: post-emerge, phytotoxicity rating 0-100 at 14 days after application
Summary of the method: as §1

[9] = test system: large crabgrass (Digitaria sanguinalis, DIGSA); assay: as above; conditions: post-emerge, phytotoxicity rating 0-100 at 14 days after application
Summary of the method: as §1

[10] = test system: redroot pigweed (Amaranthus retroflexus, AMARE); assay: as above; conditions: post-emerge, phytotoxicity rating 0-100 at 14 days after application
Summary of the method: as §1

[11] = test system: lambsquarters (Chenopodium album, CHEAL); assay: as above; conditions: post-emerge, phytotoxicity rating 0-100 at 14 days after application
Summary of the method: as §1

[12] = test system: barnyardgrass (Echinochloa crus-galli, ECHCG); assay: as above; conditions: post-emerge, phytotoxicity rating 0-100 at 14 days after application
Summary of the method: as §1

[13] = test system: johnsongrass (Sorghum halepense, SORHA); assay: Pre-emerge test, greenhouse herbicide activity screening; conditions: pre-emerge, phytotoxicity rating 0-100 at 14 days after application
Summary of the method: as §2

[14] = test system: ivyleaf morningglory (Ipomoea hederacea, IPOHE); assay: as above; conditions: pre-emerge, phytotoxicity rating 0-100 at 14 days after application
Summary of the method: as §2

[15] = test system: velvetleaf (Abutilon theophrasti, ABUTH); assay: as above; conditions: pre-emerge, phytotoxicity rating 0-100 at 14 days after application
Summary of the method: as §2

[16] = test system: sicklepod (Cassia obtusifolia, CASOB); assay: as above; conditions: pre-emerge, phytotoxicity rating 0-100 at 14 days after application
Summary of the method: as §2

[17] = test system: green foxtail (Setaria viridis, SETVI); assay: as above; conditions: pre-emerge, phytotoxicity rating 0-100 at 14 days after application
Summary of the method: as §2

[18] = test system: large crabgrass (Digitaria sanguinalis, DIGSA); assay: as above; conditions: pre-emerge, phytotoxicity rating 0-100 at 14 days after application
Summary of the method: as §2

[19] = test system: lambsquarters (Chenopodium album, CHEAL); assay: as above; conditions: pre-emerge, phytotoxicity rating 0-100 at 14 days after application
Summary of the method: as §2

[20] = test system: barnyardgrass (Echinochloa crus-galli, ECHCG); assay: as above; conditions: pre-emerge, phytotoxicity rating 0-100 at 14 days after application
Summary of the method: as §2

[21] = test system: upland rice (Oryza sp., var. Tebonnet, RICE); assay: Pre-emerge test, crop safety; conditions: crop damage, pre-emerge, phytotoxicity rating 0-100 at 14 days after application
Summary of the method: (§3)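 Compounds in acetone were track-sprayed at 15-1000 g ai/ha (187 l/ha) on sandy loam pots: pre-emerge one day after seeding, post-emerge at 2-3 leaf stage with 0.25% v/v non-ionic surfactant. Phytotoxicity was rated 14 days later on a 0 (no damage) to 100 (complete death) scale.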

[22] = test system: field corn (Zea mays L., var. Dekalb 535, CORN); assay: Pre-emerge test, crop safety; conditions: crop damage, pre-emerge, phytotoxicity rating 0-100 at 14 days after application
Summary of the method: as §3

## Nc1c(OC2CCCC2)c(Cl)cc(F)c1N1C(=O)C2=C(CCCC2)C1=O [Compound 8-5, N-(2-amino-4-chloro-3-cyclopentyloxy-6-fluorophenyl)tetrahydrophthalimide]
[1]; rate 63 g ai/ha
  Pre-emerge Herbicidal Activity AMARE: 40
[1]; rate 250 g ai/ha
  Pre-emerge Herbicidal Activity AMARE: 95
[2]; 63 g ai/ha
  Post-emerge Herbicidal Activity RICE: 40
[2]; 250 g ai/ha
  Post-emerge Herbicidal Activity RICE: 50
[3]; 63 g ai/ha
  Post-emerge Herbicidal Activity CORN: 0
[3]; 250 g ai/ha
  Post-emerge Herbicidal Activity CORN: 0
[4]; 63 g ai/ha
  Post-emerge Herbicidal Activity SORHA: 0
[4]; 250 g ai/ha
  Post-emerge Herbicidal Activity SORHA: 0
[5]; 63 g ai/ha
  Post-emerge Herbicidal Activity IPOHE: 0
[5]; 250 g ai/ha
  Post-emerge Herbicidal Activity IPOHE: 40
[6]; 63 g ai/ha
  Post-emerge Herbicidal Activity ABUTH: 70
[6]; 250 g ai/ha
  Post-emerge Herbicidal Activity ABUTH: 90
[7]; 63 g ai/ha
  Post-emerge Herbicidal Activity CASOB: 0
[7]; 250 g ai/ha
  Post-emerge Herbicidal Activity CASOB: 10
[8]; 63 g ai/ha
  Post-emerge Herbicidal Activity SETVI: 0
[8]; 250 g ai/ha
  Post-emerge Herbicidal Activity SETVI: 20
[9]; 63 g ai/ha
  Post-emerge Herbicidal Activity DIGSA: 0
[9]; 250 g ai/ha
  Post-emerge Herbicidal Activity DIGSA: 0
[10]; 63 g ai/ha
  Post-emerge Herbicidal Activity AMARE: 40
[10]; 250 g ai/ha
  Post-emerge Herbicidal Activity AMARE: 100
[11]; 63 g ai/ha
  Post-emerge Herbicidal Activity CHEAL: 70
[11]; 250 g ai/ha
  Post-emerge Herbicidal Activity CHEAL: 70
[12]; 63 g ai/ha
  Post-emerge Herbicidal Activity ECHCG: 0
[12]; 250 g ai/ha
  Post-emerge Herbicidal Activity ECHCG: 0
[13]; rate 63 g ai/ha
  Pre-emerge Herbicidal Activity SORHA: 0
[13]; rate 250 g ai/ha
  Pre-emerge Herbicidal Activity SORHA: 20
[14]; rate 63 g ai/ha
  Pre-emerge Herbicidal Activity IPOHE: 0
[14]; rate 250 g ai/ha
  Pre-emerge Herbicidal Activity IPOHE: 0
[15]; rate 63 g ai/ha
  Pre-emerge Herbicidal Activity ABUTH: 0
[15]; rate 250 g ai/ha
  Pre-emerge Herbicidal Activity ABUTH: 70
[16]; rate 63 g ai/ha
  Pre-emerge Herbicidal Activity CASOB: 0
[16]; rate 250 g ai/ha
  Pre-emerge Herbicidal Activity CASOB: 40
[17]; rate 63 g ai/ha
  Pre-emerge Herbicidal Activity SETVI: 70
[17]; rate 250 g ai/ha
  Pre-emerge Herbicidal Activity SETVI: 90
[18]; rate 63 g ai/ha
  Pre-emerge Herbicidal Activity DIGSA: 0
[18]; rate 250 g ai/ha
  Pre-emerge Herbicidal Activity DIGSA: 0
[19]; rate 63 g ai/ha
  Pre-emerge Herbicidal Activity CHEAL: 0
[19]; rate 250 g ai/ha
  Pre-emerge Herbicidal Activity CHEAL: 80
[20]; rate 63 g ai/ha
  Pre-emerge Herbicidal Activity ECHCG: 0
[20]; rate 250 g ai/ha
  Pre-emerge Herbicidal Activity ECHCG: 0
[21]; rate 63 g ai/ha
  Pre-emerge Herbicidal Activity RICE: 0
[21]; rate 250 g ai/ha
  Pre-emerge Herbicidal Activity RICE: 0
[22]; rate 63 g ai/ha
  Pre-emerge Herbicidal Activity CORN: 0
[22]; rate 250 g ai/ha
  Pre-emerge Herbicidal Activity CORN: 0

From US6355799B1, “Substituted benzene compounds, process for their preparation, and herbicidal and defoliant compositions containing them” (ISK Americas Incorporated, priority 1997, dated 2002)
